This note sets out measurements from patent US4945160A, “Preparation of certain 7-substituted quinolones” (Warner-Lambert Company, priority 1988, dated 1990).

Common to all, as to type: cell-based
In one test the test system is E. cloacae. The test can be described thus: In vitro antibacterial activity, microdilution MIC, E. cloacae. The conditions noted are these: Enterobacter cloacae, microdilution method, read-out: Minimal Inhibitory Concentration MIC. The source says:
(§1) The compounds of the invention display antibacterial activity when tested by the microdilution method as described in Heifetz, et al, Antimicr. Agents and Chemoth., 6, 124 (1974), which is incorporated herein by reference.
(§2) By use of this method, the following minimum inhibitory concentration values (MICs in μg/ml) were obtained for representative compounds of the invention.
A general note: In broth dilution the organism is exposed to a series of concentrations in liquid medium.

Another test relates to E. coli. The test can be described thus: In vitro antibacterial activity, microdilution MIC, E. coli. The conditions noted are these: Escherichia coli, microdilution method, read-out: Minimal Inhibitory Concentration MIC.
From the text: as §1, §2

The next test has as its system K. pneumoniae. Description: In vitro antibacterial activity, microdilution MIC, K. pneumoniae. The conditions noted are these: Klebsiella pneumoniae, microdilution method, read-out: Minimal Inhibitory Concentration MIC.
From the text: as §1, §2

A further test has as its system P. rettgeri. Description: In vitro antibacterial activity, microdilution MIC, P. rettgeri. The conditions noted are these: Providencia rettgeri, microdilution method, read-out: Minimal Inhibitory Concentration MIC.
From the text: as §1, §2

Another test deals with P. aeruginosa. Description: In vitro antibacterial activity, microdilution MIC, P. aeruginosa. The conditions noted are these: Pseudomonas aeruginosa, microdilution method, read-out: Minimal Inhibitory Concentration MIC.
From the text: as §1, §2

Another test deals with S. aureus. The test can be described thus: In vitro antibacterial activity, microdilution MIC, S. aureus. The conditions noted are these: microdilution method; for MIC: Staphylococcus aureus, first S. aureus line (strain not given), read-out: Minimal Inhibitory Concentration MIC; for Minimal Inhibitory Concentration MIC: second S. aureus line (strain not given).
From the text: as §1, §2

A further test deals with S. faecalis. The test can be described thus: In vitro antibacterial activity, microdilution MIC, S. faecalis. The conditions noted are these: Enterococcus faecalis, microdilution method, read-out: Minimal Inhibitory Concentration MIC.
From the text: as §1, §2

For a further test, the system named is S. pneumoniae. The test can be described thus: In vitro antibacterial activity, microdilution MIC, S. pneumoniae. The conditions noted are these: Streptococcus pneumoniae, microdilution method, read-out: Minimal Inhibitory Concentration MIC.
From the text: as §1, §2

The next test deals with S. pyogenes. The test can be described thus: In vitro antibacterial activity, microdilution MIC, S. pyogenes. The conditions noted are these: Streptococcus pyogenes, microdilution method, read-out: Minimal Inhibitory Concentration MIC.
From the text: as §1, §2

Where [1] appears, read: first E. coli line (strain not given).
The mark [2] stands for this setting: second E. coli line, last of table (strain not given).

≈ marks a conversion by molar mass, not a printed value. Where two headings read alike, the source gives them in different places. A value given as a limit tells only on which side of the number the result lay.

In the case of `C=Cc1c(F)cc2c(=O)c(C(=O)O)cn(C3CC3)c2c1F` [Compound 5, 1-Cyclopropyl-7-ethenyl-6,8-difluoro-1,4-dihydro-4-oxo-3-quinolinecarboxylic acid], the MIC in the test on E. cloacae was determined as 0.1 µg/mL (≈ 0.343 µM); in the test on E. coli (setting [1]) it was 0.2 µg/mL (≈ 0.687 µM); with E. coli (setting [2]), 0.1 µg/mL (≈ 0.343 µM); in the test on K. pneumoniae, 0.4 µg/mL (≈ 1.37 µM); in the test on P. rettgeri, 0.4 µg/mL (≈ 1.37 µM); with P. aeruginosa, 1.6 µg/mL (≈ 5.49 µM). Further, the MIC is at most 0.025 µg/mL in the test on S. aureus, 0.2 µg/mL (≈ 0.687 µM) in the test with S. faecalis, 0.8 µg/mL (≈ 2.75 µM) in the test on S. pneumoniae and 0.8 µg/mL (≈ 2.75 µM) with S. pyogenes. For the same compound, the “Minimal Inhibitory Concentration MIC” value in the test on S. aureus is at most 0.025 µg/mL.

On to `CCn1cc(C(=O)O)c(=O)c2cc(F)c(C3CCN(Cc4ccccc4)C3)nc21` (stereo not shown) [Compound 10], for which the MIC in the test on E. cloacae was 12.5 µg/mL (≈ 31.6 µM); in the test with E. coli (setting [1]), 12.5 µg/mL (≈ 31.6 µM); with E. coli (setting [2]), 12.5 µg/mL (≈ 31.6 µM); in the test on K. pneumoniae, 25 µg/mL (≈ 63.2 µM); in the test with P. rettgeri, over 25 µg/mL; with P. aeruginosa, over 25 µg/mL. Moreover, the MIC in the test with S. aureus turned out to be 6.3 µg/mL (≈ 15.9 µM); with S. faecalis it was 25 µg/mL (≈ 63.2 µM); in the test on S. pneumoniae, 12.5 µg/mL (≈ 31.6 µM); with S. pyogenes it was 12.5 µg/mL (≈ 31.6 µM). Further, the “Minimal Inhibitory Concentration MIC” value with S. aureus came to 6.3 µg/mL.
